Values quoted from earlier work, collected in patent US10918604B2, “Solid oral dosage forms of eslicarbazepine” (Jubilant Generics Limited, priority 2015, dated 2021).

Conditions: reported in background

## CC(=O)O[C@H]1Cc2ccccc2N(C(N)=O)c2ccccc21 [Eslicarbazepine acetate, (S)-10-acetoxy-10,11-dihydro-5H-dibenzo[b,f]azepine-5-carboxamide]
  solubility in water: poorly soluble in water
